Reference: US10793561B2, “1,8-naphthyridinone compounds and uses thereof” (NUVATION BIO INC., priority 2017, dated 2020)

Assays:
adenosine A2A receptor [1] = target: T1, adenosine A2A receptor (Homo sapiens (Human), UniProt P29274); test: Radioligand binding competition assay, adenosine A2A receptor; conditions: 3000 nM compound; for inhibition at 3 µM: read-out: A2a binding % inh @ 3000 nM
Protocol: Binding of selected compounds to the adenosine A1, A2A, A2B, and A3 receptors was tested using a binding competition assay.
The general protocol for the radioligand binding competition assay was as follows. Competition binding was performed in duplicate in the wells of a 96 well plate (Master Block, Greiner, 786201) containing binding buffer (optimized for each receptor), membrane extracts (amount of protein/well optimized for each receptor), radiotracer (final concentration optimized for each receptor), and test compound. Nonspecific binding was determined by co-incubation with 200-fold excess of cold competitor. The samples were incubated in a final volume of 0.1 mL at 25° C. for 60 minutes and then filtered over filter plates. Filters were washed six times with 0.5 mL of ice-cold washing buffer (optimized for each receptor) and 50 μL of Microscint 20 (Packard) were added on each filter. The filter plates were sealed, incubated 15 min on an orbital shaker and scintillation counted with a TopCount for 30 sec/filter.
For the adenosine A2A receptor radioligand binding assay, the following modifications were made to the general protocol. GF/C filters (Perkin Elmer, 6005174), presoaked in 0.01% Brij for 2 h at room temperature were used. Filters were washed six times with 0.5 mL of ice-cold washing buffer (50 mM Tris pH 7.4) and 50 μL of Microscint 20 (Packard) was added in each well. The plates were then incubated for 15 min on an orbital shaker and then counted with a TopCount™ for 1 min/well.
Another radioligand binding assay was used to evaluate the binding affinity for the adenosine A2A receptor assay was performed in duplicate in the wells of a 384 plate. Assay buffer contained DPBS 500 mM, MgCl2 0.1 mM, and 1% DMSO. Membrane-bead suspension was prepared by mixing 25.98 μL of human adenosine A2A membrane preparation (Perkin Elmer, RBHA2AM400UA) at 33.4 pg/mL, 28 μL of ADA at 20 pg/mL, and 932 μL of SPA beads at 3.33 mg/mL) and incubated the mixture for 20 min at room temperature. Mixed 20 μL of radiotracer (^3H-SCH 58261) at 15 nM to each well containing test articles at various concentrations and centrifuge the plate at 1000 rpm for 1 minute. Added 30 μL of the membrane-bead suspension to each well. Sealed the plates and incubated for 1 hr at room temperature with vigorous mixing on a plate mixer. Plates were read on Microbeta^2 (Perkin Elmer, 2450-0010).
CHO-K1-A3 cell membranes, 1.5 μg/well; a binding buffer comprising HEPES 25 mM pH 7.4, MgCl2 5 mM, CaCl2 1 mM, 0.5% BSA; a wash buffer comprising HEPES 25 mM pH 7.4, MgCl2 5 mM, CaCl2 1 mM; a Unifilter GF/C—treated for 2 h with 0.5% BS; and 0.4 nM of ^125I-AB-MECA as the tracer. The results of the binding assay are shown in Table B1-1 and are shown as percent residual binding at a given concentration. Percent of residual binding means binding of a compound in the presence of competitor normalized to the amount of binding in the absence of competitor. […] For example, compound 1 strongly bound to A2A (30% residual binding at a concentration of 100 nM), A1 (−3% residual binding at 300 nM) and A2B, (−9% residual binding at 300 nM) but weakly bound to A3 (96% residual binding at 300 nM).

adenosine A2A receptor [2] = target: T1, adenosine A2A receptor; test: cAMP assay in HEK-293 cells expressing human recombinant adenosine A2A receptor; assay type: cell-based; conditions: for inhibition at 0.1 µM: 100 nM compound, read-out: A2a cAMP % inh @ 100 nM
Protocol: The functional activity of compounds was tested using one of the two assays to detect the present of cAMP. Activation of G-protein coupled receptors (such as A2A) results in activation of adenylcyclase which converts ATP into cAMP which is used as a downstream signaling molecule. Therefore, molecules which act as GPCR (or specifically A2A receptor) antagonists cause a decrease in intracellular cAMP concentration.
Both assays used HEK-293 cells expressing human recombinant adenosine A2A receptor were grown prior to the test in media without antibiotic. Assay 1: The cells were detached by gentle flushing with PBS-EDTA (5 mM EDTA), recovered by centrifugation and suspended in assay buffer (KRH: 5 mM KCl, 1.25 mM MgSO4, 124 mM NaCl, 25 mM HEPES, 13.3 mM Glucose, 1.25 mM KH2PO4, 1.45 mM CaCl2, 0.5 g/L BSA, supplemented with Rolipram).
12 μL of cells were mixed with 6 μL of the test compound at increasing concentrations and then incubated for 10 min. Thereafter 6 μL of the reference agonist was added at a final concentration corresponding to the historical EC80. The plates were then incubated for 30 min at room temperature. After addition of the lysis buffer and 1 hour incubation, cAMP concentrations were estimated, according to the manufacturer specification, with the HTRF® kit.
Assay 2: 100 nL of test articles at 100× of final concentration were transferred to assay plate by Echo. Cells were washed twice with 5 mL of PBS […]. After aspirating the PBS and adding 1.5 mL versine, cells were incubated at 37° C. for 2-5 min. After centrifugation, 4 mL of medium was added and adjusted cell density to 5,000 cells/well with stimulation buffer. 10 μL of cells were aliquoted to the assay plate, centrifuged at 1000 rpm for 1 minute, and incubated for 60 minutes at room temperature. 5 μL 4× Eu-cAMP tracer solution and 5 μL 4× Ulight™-anti-cAMP solution were added to assay plate, followed by centrifugation and 60-minute incubation at room temperature. Plates were read on EnVision.

T1 sequence (P29274 whole entry): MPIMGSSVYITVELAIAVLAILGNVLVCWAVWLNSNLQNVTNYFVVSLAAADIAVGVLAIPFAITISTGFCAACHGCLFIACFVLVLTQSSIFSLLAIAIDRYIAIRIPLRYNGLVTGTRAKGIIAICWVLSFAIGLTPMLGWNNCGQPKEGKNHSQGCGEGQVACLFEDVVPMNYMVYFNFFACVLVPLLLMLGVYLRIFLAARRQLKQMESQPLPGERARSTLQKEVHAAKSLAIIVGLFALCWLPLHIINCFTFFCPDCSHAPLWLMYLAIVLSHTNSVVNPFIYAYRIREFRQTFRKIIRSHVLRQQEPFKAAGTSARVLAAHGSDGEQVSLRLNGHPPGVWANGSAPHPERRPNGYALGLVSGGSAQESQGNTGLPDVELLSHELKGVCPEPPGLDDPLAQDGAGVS

Row | A2A radioligand binding competition assay % residual binding @ 3000 nM (adenosine A2A receptor [1]) | inhibition at 0.1 µM (adenosine A2A receptor [2]; HEK293) [%] | Compound | further results
1 | 22/ND/ND/ND % | 77 | Cc1cc(-c2cc3c(=O)cc[nH]c3nc2-c2ccccc2)cc2cccnc12 [Compound No. 1.23, 6-(8-methylquinolin-6-yl)-7-phenyl-1,8-naphthyridin-4(1H)-one] | 
2 | 69/ND/ND/ND % | 30 | Cn1cnc2cc(-c3cc4c(=O)cc[nH]c4nc3-c3ccccc3)ccc21 [Compound No. 1.22, 6-(1-methyl-1H-benzo[d]imidazol-5-yl)-7-phenyl-1,8-naphthyridin-4(1H)-one] | 
3 | 14/ND/ND/ND % | 85 | O=c1cc[nH]c2nc(-c3ccccc3)c(-c3cc(Cl)c4[nH]cnc4c3)cc12 [Compound No. 1.17, 6-(7-chloro-1H-benzo[d]imidazol-5-yl)-7-phenyl-1,8-naphthyridin-4(1H)-one] | 

Second part, the compound before the results:

Row | Compound | A2A radioligand binding competition assay % residual binding @ 3000 nM (adenosine A2A receptor [1]) | inhibition at 0.1 µM (adenosine A2A receptor [2]; HEK293) [%] | further results
4 | Cc1cc(-c2cc3ccc(=O)[nH]c3nc2-c2ccccc2)cc(C)n1 [Compound No. 1.33, 6-(2,6-dimethylpyridin-4-yl)-7-phenyl-1,8-naphthyridin-2(1H)-one] |  |  | inhibition at 3 µM (adenosine A2A receptor [1]): 30%; inhibition at 0.3 µM (adenosine A2A receptor [2]; HEK293, 300 nM compound, read-out: A2a cAMP % inh @ 300 nM): 60%
5 | O=c1ccc2cc(-c3cc(Cl)c4ncccc4c3)c(-c3ccccc3)nc2[nH]1 [Compound No. 1.12, 6-(8-chloroquinolin-6-yl)-7-phenyl-1,8-naphthyridin-2 (1H)-one] | 14/ND/ND/ND % | 100 | 
6 | Cc1ccc(-c2nc3[nH]ccc(=O)c3cc2-c2ccc3ncsc3c2)o1 [Compound No. 1.98, 6-(benzo[d]thiazol-6-yl)-7-(5-methylfuran-2-yl)-1,8-naphthyridin-4(1H)-one] |  |  | inhibition at 3 µM (adenosine A2A receptor [1]): 85%; IC50 (adenosine A2A receptor [2]; second cAMP table): 17.2 nM
7 | O=c1cc[nH]c2nc(-c3ccccc3)c(-c3cc(Cl)c4ncccc4c3)cc12 [Compound No. 1.13, 6-(8-chloroquinolin-6-yl)-7-phenyl-1,8-naphthyridin-4(1H)-one] | 29/ND/ND/ND % |  | IC50 (adenosine A2A receptor [2]; first cAMP table): 47.7 nM
8 | O=c1cc[nH]c2nc(-c3ccccc3)c(-c3ccc4cnccc4c3)cc12 [Compound No. 1.9, 6-(isoquinolin-6-yl)-7-phenyl-1,8-naphthyridin-4(1H)-one] | 70/ND/ND/ND % | 30 | 
